{"source": "DBAASP", "assay_in_all_cases": "≥ marks a high value that may be exact or a test limit, other limits are often not marked, values filed in µg/mL are converted to µM", "key": {"[1]": {"system": "Pseudomonas aeruginosa"}, "[2]": {"system": "Staphylococcus epidermidis ATCC 12228"}, "[3]": {"system": "Enterococcus faecalis ATCC 29212"}, "[4]": {"system": "Acinetobacter baumannii ATCC 19606"}, "[5]": {"system": "Pseudomonas aeruginosa ATCC 27583"}, "[6]": {"system": "Pseudomonas aeruginosa ATCC 27853"}, "[7]": {"system": "Pseudomonas syringae pv. tabaci 1918NCPPB"}, "[8]": {"system": "Bacillus subtilis ATCC 6633"}, "[9]": {"system": "Acinetobacter junii RT-4"}, "[10]": {"system": "Staphylococcus aureus ATCC 29213"}, "[11]": {"system": "Yersinia pseudotuberculosis YPIII"}, "[12]": {"system": "Staphylococcus aureus ATCC 33592"}, "[13]": {"system": "Acinetobacter baumannii ATCC BAA-747"}, "[14]": {"system": "Saccharomyces cerevisiae"}, "[15]": {"system": "Staphylococcus capitis 1"}, "[16]": {"system": "Aeromonas hydrophila Rt-6"}, "[17]": {"system": "Candida albicans ATCC 10231"}, "[18]": {"system": "Pseudomonas aeruginosa ATCC BAA-427"}, "[19]": {"system": "Escherichia coli ATCC 9637"}, "[20]": {"system": "Bacillus megaterium Bm11"}, "[21]": {"system": "Staphylococcus aureus ATCC 700699"}, "[22]": {"system": "Staphylococcus aureus ATCC 43300"}, "[23]": {"system": "Candida parapsilosis ATCC 22019"}, "[24]": {"system": "Staphylococcus aureus ATCC 700698"}, "[25]": {"system": "Staphylococcus aureus ATCC BAA-44"}, "[26]": {"system": "Schizosaccharomyces pombe"}, "[27]": {"system": "Escherichia coli D21"}, "[28]": {"system": "Pseudomonas aeruginosa ATCC 15692"}, "[29]": {"system": "Streptococcus pyogenes ATCC 21547"}, "[30]": {"system": "Klebsiella pneumoniae ATCC 700603"}, "[31]": {"system": "Enterococcus faecium ATCC 700221"}, "[32]": {"system": "Klebsiella pneumoniae ATCC 27736"}, "[33]": {"system": "Staphylococcus aureus Cowan 1"}, "[34]": {"system": "Cryptococcus neoformans"}, "[35]": {"system": "Bacillus subtilis 168 HT"}, "[36]": {"system": "Escherichia coli MG1655"}, "[37]": {"system": "Escherichia coli DSM 1103"}, "[38]": {"system": "Pseudomonas aeruginosa H374"}, "[39]": {"system": "Salmonella enterica subsp. enterica serovar Typhimurium ATCC 14028s"}, "[40]": {"system": "Burkholderia cepacia ATCC 25416"}, "[41]": {"system": "Pseudomonas aeruginosa H547"}, "[42]": {"system": "Streptococcus pneumoniae DSM 11865"}, "[43]": {"system": "Pseudomonas aeruginosa H744"}, "[44]": {"system": "Klebsiella pneumoniae DSM 681"}, "[45]": {"system": "Pseudomonas aeruginosa DSM 1128"}, "[46]": {"system": "Escherichia coli UB1005"}, "[47]": {"system": "Pseudomonas aeruginosa Z61"}, "[48]": {"system": "Staphylococcus aureus ATCC 25923"}, "[49]": {"system": "Pseudomonas aeruginosa K799"}, "[50]": {"system": "Aspergillus fumigatus"}, "[51]": {"system": "Trichophyton mentagrophytes"}, "[52]": {"system": "Sporothrix schenckii"}, "[53]": {"system": "Bacillus cereus"}}, "data": [{"smiles": "CC[C@H](C)[C@H](NC(=O)[C@H](CCCNC(=N)N)NC(=O)CNC(=O)[C@H](CC(C)C)NC(=O)[C@H](Cc1ccccc1)NC(=O)[C@H](CCCCN)NC(=O)[C@H](CO)NC(=O)[C@H](Cc1ccccc1)NC(=O)[C@H](Cc1c[nH]c2ccccc12)NC(=O)[C@H](CCC(N)=O)NC(=O)[C@@H](NC(=O)[C@@H](N)Cc1ccccc1)C(C)C)C(=O)N[C@@H](CC(C)C)C(N)=O", "note": "[FVQWFSKFLGRIL]", "values": [{"measurement": "MIC", "setting": "[1]", "value": 64, "unit": "µM"}, {"measurement": "MIC", "setting": "[2]", "value": 1.94, "unit": "µM"}, {"measurement": "MIC", "setting": "[3]", "value": 6, "unit": "µM"}, {"measurement": "MIC", "setting": "[4]", "value": 6, "unit": "µM"}, {"measurement": "MIC", "setting": "[5]", "value": "≥ 32", "unit": "µM"}, {"measurement": "MIC", "setting": "[6]", "value": "> 48", "unit": "µM"}, {"measurement": "MIC", "setting": "[7]", "value": 6, "unit": "µM"}, {"measurement": "MIC", "setting": "[8]", "value": 7.6, "unit": "µM"}, {"measurement": "MIC", "setting": "[9]", "value": 3, "unit": "µM"}, {"measurement": "MIC", "setting": "[10]", "value": 3.6, "unit": "µM"}, {"measurement": "MIC", "setting": "[11]", "value": 3, "unit": "µM"}, {"measurement": "MIC", "setting": "[12]", "value": 3.6, "unit": "µM"}, {"measurement": "MIC", "setting": "[13]", "value": 4, "unit": "µM"}, {"measurement": "MIC", "setting": "[14]", "value": 6, "unit": "µM"}, {"measurement": "MIC", "setting": "[15]", "value": 1.5, "unit": "µM"}, {"measurement": "MIC", "setting": "[16]", "value": "≥ 40", "unit": "µM"}, {"measurement": "MIC", "setting": "[17]", "value": 12, "unit": "µM"}, {"measurement": "MIC", "setting": "[18]", "value": 7.6, "unit": "µM"}, {"measurement": "MIC", "setting": "[19]", "value": 12.5, "unit": "µM"}, {"measurement": "MIC", "setting": "[20]", "value": 1.94, "unit": "µM"}, {"measurement": "MIC", "setting": "[21]", "value": 3.6, "unit": "µM"}, {"measurement": "MIC", "setting": "[22]", "value": 4, "unit": "µM"}, {"measurement": "MIC", "setting": "[23]", "value": 12, "unit": "µM"}, {"measurement": "MIC", "setting": "[24]", "value": 3.6, "unit": "µM"}, {"measurement": "MIC", "setting": "[25]", "value": 3.6, "unit": "µM"}, {"measurement": "MIC", "setting": "[26]", "value": 6, "unit": "µM"}, {"measurement": "MIC", "setting": "[27]", "value": 11, "unit": "µM"}, {"measurement": "MIC", "setting": "[28]", "value": 21.9, "unit": "µM"}, {"measurement": "MIC", "setting": "[29]", "value": 6, "unit": "µM"}, {"measurement": "MIC", "setting": "[30]", "value": 16, "unit": "µM"}, {"measurement": "MIC", "setting": "[31]", "value": 8, "unit": "µM"}, {"measurement": "MIC", "setting": "[32]", "value": 11.4, "unit": "µM"}, {"measurement": "MIC", "setting": "[33]", "value": 2.74, "unit": "µM"}, {"measurement": "MIC", "setting": "[34]", "value": 12, "unit": "µM"}]}, {"smiles": "CC[C@H](C)[C@H](N)C(=O)N[C@@H](CO)C(=O)N[C@@H](CCCN=C(N)N)C(=O)N[C@@H](C)C(=O)N[C@@H](CS)C(=O)N[C@@H](CC(C)C)C(=O)N[C@H](C(=O)N[C@@H](CCSC)C(=O)N[C@@H](CCCCN)C(=O)N[C@H](C(=O)N[C@@H](CCCN=C(N)N)C(=O)N[C@@H](CCCN=C(N)N)C(=O)N[C@@H](CCCCN)C(=O)N[C@@H](CCCCN)C(=O)O)C(C)C)[C@@H](C)CC", "note": "[ISRACLIMKVRRKK]", "values": [{"measurement": "MIC", "setting": "[35]", "value": 9.4, "unit": "µM"}, {"measurement": "MIC", "setting": "[36]", "value": "≥ 37.6", "unit": "µM"}]}, {"smiles": "CC[C@H](C)[C@H](NC(=O)CNC(=O)[C@@H](NC(=O)[C@H](CCCCN)NC(=O)[C@H](CCCCN)NC(=O)[C@H](Cc1ccccc1)NC(=O)[C@H](CC(C)C)NC(=O)[C@H](CCCCN)NC(=O)[C@H](Cc1c[nH]c2ccccc12)NC(=O)[C@@H](N)CCCCN)[C@@H](C)CC)C(=O)NCC(=O)N[C@@H](C)C(=O)N[C@H](C(=O)N[C@@H](CC(C)C)C(=O)N[C@@H](CCCCN)C(=O)N[C@H](C(=O)N[C@@H](CC(C)C)C(=O)N[C@H](C(=O)N[C@H](C(=O)NCC(=O)N[C@@H](CC(C)C)C(=O)N1CCC[C@H]1C(=O)N[C@@H](C)C(=O)N[C@@H](CC(C)C)C(=O)N[C@@H](CCCCN)C(=O)N[C@@H](CC(C)C)C(=O)N[C@H](C(=O)N[C@@H](CCCCN)C(=O)O)[C@@H](C)O)[C@@H](C)O)[C@@H](C)O)C(C)C)C(C)C", "note": "[KWKLFKKIGIGAVLKVLTTGLPALKLTK]", "values": [{"measurement": "MIC", "setting": "[37]", "value": 2.04, "unit": "µM"}, {"measurement": "MIC", "setting": "[38]", "value": 0.652, "unit": "µM"}, {"measurement": "MIC", "setting": "[39]", "value": 0.979, "unit": "µM"}, {"measurement": "MIC", "setting": "[40]", "value": 20.9, "unit": "µM"}, {"measurement": "MIC", "setting": "[41]", "value": 1.3, "unit": "µM"}, {"measurement": "MIC", "setting": "[42]", "value": 2.04, "unit": "µM"}, {"measurement": "MIC", "setting": "[43]", "value": 0.652, "unit": "µM"}, {"measurement": "MIC", "setting": "[44]", "value": 2.04, "unit": "µM"}, {"measurement": "MIC", "setting": "[45]", "value": 1.02, "unit": "µM"}, {"measurement": "MIC", "setting": "[46]", "value": 0.652, "unit": "µM"}, {"measurement": "MIC", "setting": "[47]", "value": 0.652, "unit": "µM"}, {"measurement": "MIC", "setting": "[48]", "value": 2.04, "unit": "µM"}, {"measurement": "MIC", "setting": "[49]", "value": 0.979, "unit": "µM"}]}, {"smiles": "CC(C)C[C@H](NC(=O)[C@H](CC(C)C)NC(=O)[C@H](CCCN=C(N)N)NC(=O)[C@H](CCCN=C(N)N)NC(=O)[C@H](C)NC(=O)[C@H](Cc1c[nH]c2ccccc12)NC(=O)[C@H](CCCN=C(N)N)NC(=O)[C@H](C)NC(=O)[C@H](C)NC(=O)[C@H](CCCN=C(N)N)NC(=O)[C@H](CCCN=C(N)N)NC(=O)[C@@H](N)CC(C)C)C(=O)N[C@@H](CCCN=C(N)N)C(=O)N[C@@H](CCCN=C(N)N)C(=O)O", "note": "[LRRAARWARRLLRR]", "values": [{"measurement": "MIC", "setting": "[50]", "value": 27, "unit": "µM"}, {"measurement": "MIC", "setting": "[18]", "value": 13.5, "unit": "µM"}, {"measurement": "MIC", "setting": "[19]", "value": 13.5, "unit": "µM"}, {"measurement": "MIC", "setting": "[23]", "value": 6.76, "unit": "µM"}, {"measurement": "MIC", "setting": "[51]", "value": "≥ 54", "unit": "µM"}, {"measurement": "MIC", "setting": "[48]", "value": 1.7, "unit": "µM"}, {"measurement": "MIC", "setting": "[52]", "value": 6.76, "unit": "µM"}, {"measurement": "MIC", "setting": "[53]", "value": 1.7, "unit": "µM"}, {"measurement": "MIC", "setting": "[32]", "value": 3.38, "unit": "µM"}]}]}
